Source: patent US20240150346A1, “CLASS OF HETEROAROMATIC COMPOUND, PREPARATION METHOD THEREFOR AND USE THEREOF” (INNOVSTONE THERAPEUTICS LIMITED, priority 2021, published 2024)
Structures can show the parent of a compound that is named as a salt. Where two headings read alike, the source gives them in different places.

Target: T1, human-derived receptor TLR7 (Homo sapiens, UniProt Q9NYK1)
T1 construct: host or cells: HEK-Blue hTLR7 cells (HEK293-derived reporter line)
T1 sequence (Q9NYK1 27-1049): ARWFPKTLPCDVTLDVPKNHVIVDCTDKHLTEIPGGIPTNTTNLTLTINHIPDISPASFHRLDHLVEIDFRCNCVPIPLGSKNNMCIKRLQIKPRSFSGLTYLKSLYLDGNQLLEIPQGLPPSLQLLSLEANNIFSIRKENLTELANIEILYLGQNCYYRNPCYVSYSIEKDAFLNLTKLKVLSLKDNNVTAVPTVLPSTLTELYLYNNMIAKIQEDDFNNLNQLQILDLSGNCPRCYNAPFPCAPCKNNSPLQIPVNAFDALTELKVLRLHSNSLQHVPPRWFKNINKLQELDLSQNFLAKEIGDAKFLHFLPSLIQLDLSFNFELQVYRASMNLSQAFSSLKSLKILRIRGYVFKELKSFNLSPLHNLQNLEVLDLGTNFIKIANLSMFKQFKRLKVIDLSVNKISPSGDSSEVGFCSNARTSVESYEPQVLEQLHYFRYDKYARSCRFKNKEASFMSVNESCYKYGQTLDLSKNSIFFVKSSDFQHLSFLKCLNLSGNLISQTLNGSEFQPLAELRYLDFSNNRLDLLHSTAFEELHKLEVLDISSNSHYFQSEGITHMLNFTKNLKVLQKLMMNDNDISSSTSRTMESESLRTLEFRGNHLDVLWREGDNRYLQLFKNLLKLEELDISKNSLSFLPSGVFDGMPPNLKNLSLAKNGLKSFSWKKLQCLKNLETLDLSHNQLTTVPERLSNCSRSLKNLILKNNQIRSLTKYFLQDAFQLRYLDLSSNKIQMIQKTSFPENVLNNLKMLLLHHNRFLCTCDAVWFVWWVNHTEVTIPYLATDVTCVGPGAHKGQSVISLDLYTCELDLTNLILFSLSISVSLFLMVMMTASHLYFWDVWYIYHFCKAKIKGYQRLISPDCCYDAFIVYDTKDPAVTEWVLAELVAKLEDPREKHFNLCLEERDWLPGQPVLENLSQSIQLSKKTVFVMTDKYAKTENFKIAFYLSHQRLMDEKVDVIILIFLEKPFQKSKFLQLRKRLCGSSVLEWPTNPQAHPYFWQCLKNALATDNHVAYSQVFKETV
Assay: Assay on agonistic activity for human-derived receptor TLR7 (HEK-Blue hTLR7 cells, HEK-Blue Detection Medium)
Type: cell-based
Conditions: 16 h incubation, absorbance at 655 nm
Description: HEK-Blue™ hTLR7 cells (InvivoGen, hkb-htlr7) were cultured in a DMEM complete medium (Gibco, 12100) containing 10% FBS (Invitrogen, 10099141), 1% P/S (Invitrogen, 15140122), 10 μg/mL Blasticidin (InvivoGen, ant-bl-1), 100 μg/mL Zeocin (InvivoGen, ant-zn-1), and 100 μg/mL Normocin (InvivoGen, ant-nr-1). The cells were cultured in an incubator at 37° C. with 5% CO2. When HEK-Blue™ hTLR7 cells reached a growth density of 70%-80%, cell passage was needed.
The agonistic activity for the human-derived receptor TLR7 by HEK-Blue™ hTLR7 cells was assayed by HEK-Blue™ Detection Medium (InvivoGen, hd-det2). First, a bag of HEK-Blue™ Detection Medium powder was dissolved in 50 mL of ultra-pure sterile water for complete dissolution, and then the dissolved medium was filtered into a new 50 mL centrifuge tube through a 0.22 μm filter. Finally, antibiotics were added into the filtered detection medium until the final concentration was 1% for P/S and 100 μg/mL for Normocin. HEK-Blue™ Detection Medium was pre-heated to 37° C. in advance on the day of the assay on the activity for the TLR7 receptor, and the temperature was always maintained at 37° C.
The compound powder was dissolved in 100% DMSO (Sigma, D2650-100ML) to obtain a 10 mM stock solution, and the compound was completely dissolved by shaking with an oscillator. The stock solution of the compound was subjected to a 5-fold dilution to 2 mM with 100% DMSO. This was followed by a 3-fold serial dilution for a total of 8 concentration gradients. Then, each of the concentration gradients was subjected to a 20-fold dilution to 100 μM, 33.3 μM, 11.1 μM, 3.7 μM, 1.23 μM, […], 0.114 μM, and 0.05 μM using HEK-Blue™ Detection Medium. 20 μL of each of the dilutions was added to a 96-well cell culture plate (Corning, 3599).
On the day of the assay on the agonistic activity for the human-detived receptor TLR7, HEK-Blue™ hTLR7 cells has a growth density of 70%-80%, and the cell medium was removed. 1 mL of cell dissociation buffer (Gibco, 13151-014) was added to each 100 mm cell culture dish, and the cells were incubated in an incubator at 37° C. for 5 min. The cells were pipetted using a DMEM cell medium to obtain a single cell suspension, which was then centrifuged at 1000 rpm for 10 min to collect the cell pellet. The cell pellet was resuspended with HEK-Blue™ Detection Medium pre heated to 37° C. The cells were counted and diluted to 220,000 cells/mL. Finally, 180 μL of cell suspension (40,000 cells/well) was added to each well of the 96-well cell culture plate to which the compound had been added, and the cell suspension was mixed with the compound using a pipettor. Final concentrations of the compound were 10 μM, 3.3 μM, 1.1 μM, 0.37 μM, 0.12 μM, 0.04 μM, 0.01 μM, and 0.005 μM. After incubation in an incubator at 37° C. for 16 h, the absorbance was read at 655 nm using an M5e microplate reader (MD, USA).
The EC50 of the compound was calculated using the software GraphPad Prism (GraphPad Software, USA). The background reading of the detection culture was subtracted from the absorbance readings at 655 nm of all wells of the 96-well plate, the ratio of each well to the negative control well (the well without the compound) was calculated, and then the percentage of the ratio of each well to the positive control well (the well treated with 10 μM positive compound), i.e., the percentage of activity, was calculated. Finally, the sigmoidal dose-response (variable slope) curve between the percentage of activity and the concentration of the compound was calculated using the software GraphPad Prism to calculate the EC50 of the compound. […]

| SMILES | EC50 (read-out: EC50) | EC50 (read-out: hTLR7 EC50) |
| --- | --- | --- |
| COc1cc(CN(C)C)ccc1Cn1c(SC)nc2c(N)nc3ccccc3c21 [Example 240] | < 50 nM | 28.4 nM |
| CSc1nc2c(N)nc3ccccc3c2n1Cc1ccc(N2CCN(C)CC2)nc1 [Example 199] | < 50 nM | 43.6 nM |
| CSc1nc2c(N)nc3ccccc3c2n1Cc1ccc(CN2CCCC2)cc1 [Example 40, 2-(methylthio)-1-(4-(pyrrolidin-1-ylmethyl)benzyl)-1H-imidazo[4,5-c]quinoline-4-amine] | < 50 nM | 55 nM |
| COc1nc2c(N)nc3ccccc3c2n1Cc1ccc(CN2CCCC2)cc1 [Comparative Example 1, 2-methoxy-1-((4-((pyrrolidin-1-yl)methyl)phenyl)methyl)-1H-imidazo[4,5-c]quinolin-4-amine trifluoroacetate, reference compound] | – | > 10000 nM |
